Test results published in publication PMC6219668 (Oncotarget, 2018).

Test system: panel of nearly 500 cancer cell lines
Experiment: Cancer Cell Line Encyclopedia profiling, 3-day CellTiter-Glo
Type: cell-based
Details: Homo sapiens

With CN(C)C(=O)c1cc2cnc(Nc3ccc(N4CCNCC4)cn3)nc2n1C1CCCC1 [Ribociclib, 7-cyclopentyl-2-(5-piperazin-1-yl-pyridin-2-ylamino)-7H-pyrrolo[2,3-d]pyrimidine-6-carboxylic acid dimethylamide] the EC50 (HPAF-II) was > 8 µM, the IC50 (HPAF-II) was > 8 µM and the EC50 (HSC-2) was > 8 µM. The IC50 (HSC-2) was > 8 µM, the EC50 (HT1197) was 1.84 µM and the IC50 (HT1197) was > 8 µM. For the same molecule, the EC50 (HT-29) was > 8 µM, the IC50 (HT-29) was 5.83 µM and the EC50 (HT-144) was > 8 µM. For the same molecule, the IC50 (HT-144) was > 8 µM, the EC50 (HT-1080) was 2.73 µM and the IC50 (HT-1080) was > 8 µM. The EC50 (HepG2) was 0.231 µM, the IC50 (HepG2) was > 8 µM and the EC50 (Hs 294T) was 4.66 µM. The IC50 (Hs 294T) was > 8 µM, the EC50 (Hs 683) was > 8 µM and the IC50 (Hs 683) was > 8 µM. The EC50 (Hs 695T) was > 8 µM, the IC50 (Hs 695T) was > 8 µM and the EC50 (Hs746T) was 0.436 µM. For the same molecule, the IC50 (Hs746T) was > 8 µM, the EC50 (Hs-578T) was > 8 µM and the IC50 (Hs-578T) was > 8 µM. For the same molecule, the EC50 (HuCCT-1) was > 8 µM, the IC50 (HuCCT-1) was > 8 µM and the EC50 (HuH-1) was > 8 µM. For the same molecule, the IC50 (HuH-1) was > 8 µM, the EC50 (HuP-T3) was > 8 µM and the IC50 (HuP-T3) was > 8 µM. The EC50 (HuP-T4) was 2.24 µM, the IC50 (HuP-T4) was 4.3 µM and the EC50 (HuT78) was > 8 µM. For the same molecule, the IC50 (HuT78) was > 8 µM, the EC50 (IGR-37) was 0.207 µM and the IC50 (IGR-37) was > 8 µM. For the same molecule, the EC50 (IGROV-1) was > 8 µM, the IC50 (IGROV-1) was > 8 µM and the EC50 (IM95) was > 8 µM. For the same molecule, the IC50 (IM95) was > 8 µM, the EC50 (IMR-32) was 0.287 µM and the IC50 (IMR-32) was 1.56 µM. For the same molecule, the EC50 (JVM-3) was > 8 µM, the IC50 (JVM-3) was > 8 µM and the EC50 (Jurkat) was 3.75 µM. For the same molecule, the IC50 (Jurkat) was 3.69 µM, the EC50 (KALS-1) was > 8 µM and the IC50 (KALS-1) was > 8 µM. For the same molecule, the EC50 (KARPAS-299) was 0.878 µM, the IC50 (KARPAS-299) was > 8 µM and the EC50 (KARPAS-422) was > 8 µM. The IC50 (KARPAS-422) was > 8 µM, the EC50 (KCL-22) was > 8 µM and the IC50 (KCL-22) was 6.12 µM. For the same molecule, the EC50 (KMS-11) was 0.233 µM, the IC50 (KMS-11) was > 8 µM and the EC50 (KMS-12-BM) was > 8 µM. The IC50 (KMS-12-BM) was > 8 µM, the EC50 (KNS-42) was 0.134 µM and the IC50 (KNS-42) was > 8 µM. The EC50 (KNS-62) was 0.934 µM, the IC50 (KNS-62) was > 8 µM and the IC50 (KU812) was > 8 µM. For the same molecule, the EC50 (KYSE-30) was > 8 µM, the IC50 (KYSE-30) was > 8 µM and the EC50 (KYSE-70) was 1.2 µM. The IC50 (KYSE-70) was 5.61 µM, the EC50 (KYSE-140) was 0.436 µM and the IC50 (KYSE-140) was > 8 µM. For the same molecule, the EC50 (KYSE-150) was 2.92 µM, the IC50 (KYSE-150) was > 8 µM and the EC50 (KYSE-180) was 0.507 µM. The IC50 (KYSE-180) was > 8 µM, the EC50 (KYSE-410) was > 8 µM and the IC50 (KYSE-410) was > 8 µM. The EC50 (KYSE-450) was > 8 µM, the IC50 (KYSE-450) was > 8 µM and the EC50 (KYSE-510) was > 8 µM. The IC50 (KYSE-510) was > 8 µM, the EC50 (KYSE-520) was 6.06 µM and the IC50 (KYSE-520) was > 8 µM. The EC50 (L-363) was 1.04 µM, the IC50 (L-363) was > 8 µM and the EC50 (L-428) was 2.03 µM. The IC50 (L-428) was > 8 µM, the EC50 (LCLC-103H) was > 8 µM and the IC50 (LCLC-103H) was > 8 µM. The EC50 (LN-18) was > 8 µM, the IC50 (LN-18) was > 8 µM and the EC50 (LN-229) was > 8 µM. The IC50 (LN-229) was > 8 µM, the EC50 (LOX IMVI) was 2.92 µM and the IC50 (LOX IMVI) was > 8 µM. For the same molecule, the EC50 (LS-123) was > 8 µM, the IC50 (LS-123) was > 8 µM and the EC50 (LS-411N) was 3.42 µM. The IC50 (LS-411N) was 1.71 µM, the EC50 (LS-513) was > 8 µM and the IC50 (LS-513) was > 8 µM. The EC50 (Lu-99) was 0.564 µM, the IC50 (Lu-99) was 3.69 µM and the EC50 (M059J) was > 8 µM. The IC50 (M059J) was > 8 µM, the EC50 (MC116) was > 8 µM and the IC50 (MC116) was > 8 µM. For the same molecule, the EC50 (MCF7) was 0.343 µM, the IC50 (MCF7) was 1.37 µM and the EC50 (MDA-MB-157) was > 8 µM. The IC50 (MDA-MB-157) was > 8 µM, the EC50 (MDA-MB-175-VII) was > 8 µM and the IC50 (MDA-MB-175-VII) was > 8 µM. The EC50 (MDA-MB-415) was > 8 µM, the IC50 (MDA-MB-415) was > 8 µM and the EC50 (MDA-MB-435S) was 0.207 µM. The IC50 (MDA-MB-435S) was 0.775 µM, the EC50 (MDA-MB-436) was > 8 µM and the IC50 (MDA-MB-436) was > 8 µM. For the same molecule, the EC50 (MDA-MB-453) was 0.166 µM, the IC50 (MDA-MB-453) was > 8 µM and the EC50 (MDA-MB-468) was 0.347 µM. The IC50 (MDA-MB-468) was > 8 µM, the EC50 (MEC1) was > 8 µM and the IC50 (MEC1) was > 8 µM. The EC50 (MEG-01) was 0.392 µM, the IC50 (MEG-01) was > 8 µM and the EC50 (MES-SA) was 0.839 µM. For the same molecule, the IC50 (MES-SA) was > 8 µM, the EC50 (MFE-280) was > 8 µM and the IC50 (MFE-280) was > 8 µM. For the same molecule, the EC50 (MFE-296) was 0.163 µM, the IC50 (MFE-296) was 0.848 µM and the EC50 (MG-63) was 0.239 µM. For the same molecule, the IC50 (MG-63) was > 8 µM, the EC50 (MIA PaCa-2) was 2.36 µM and the IC50 (MIA PaCa-2) was 5.57 µM. The EC50 (MINO) was 0.266 µM, the IC50 (MINO) was 0.456 µM and the EC50 (MKN-7) was > 8 µM. The IC50 (MKN-7) was > 8 µM, the EC50 (MKN-45) was 0.23 µM and the IC50 (MKN-45) was > 8 µM. The EC50 (MKN-74) was > 8 µM, the IC50 (MKN-74) was > 8 µM and the EC50 (MOLP-8) was > 8 µM. The IC50 (MOLP-8) was > 8 µM, the EC50 (MSTO-211H) was > 8 µM and the IC50 (MSTO-211H) was > 8 µM. The EC50 (Malme-3M) was 0.00254 µM, the IC50 (Malme-3M) was > 8 µM and the EC50 (MeWo) was 2.57 µM. The IC50 (MeWo) was 2.57 µM, the EC50 (NCI-H23) was > 8 µM and the IC50 (NCI-H23) was > 8 µM. The EC50 (NCI-H28) was > 8 µM, the IC50 (NCI-H28) was 6.1 µM and the EC50 (NCI-H211) was 0.368 µM. The IC50 (NCI-H211) was > 8 µM, the EC50 (NCI-H226) was > 8 µM and the IC50 (NCI-H226) was > 8 µM. The EC50 (NCI-H358) was 6.86 µM, the IC50 (NCI-H358) was > 8 µM and the EC50 (NCI-H441) was 0.337 µM. For the same molecule, the IC50 (NCI-H441) was > 8 µM, the EC50 (NCI-H460) was > 8 µM and the IC50 (NCI-H460) was > 8 µM. The EC50 (NCI-H520) was > 8 µM, the IC50 (NCI-H520) was > 8 µM and the EC50 (NCI-H522) was > 8 µM. For the same molecule, the IC50 (NCI-H522) was > 8 µM, the EC50 (NCI-H647) was > 8 µM and the IC50 (NCI-H647) was > 8 µM. For the same molecule, the EC50 (NCI-H650) was 2.43 µM, the IC50 (NCI-H650) was > 8 µM and the EC50 (NCI-H661) was > 8 µM. For the same molecule, the IC50 (NCI-H661) was > 8 µM, the EC50 (NCI-H727) was 1.06 µM and the IC50 (NCI-H727) was > 8 µM. The EC50 (NCI-H747) was > 8 µM, the IC50 (NCI-H747) was > 8 µM and the EC50 (NCI-H810) was > 8 µM. For the same molecule, the IC50 (NCI-H810) was > 8 µM, the EC50 (NCI-H1048) was > 8 µM and the IC50 (NCI-H1048) was > 8 µM. For the same molecule, the EC50 (NCI-H1092) was > 8 µM, the IC50 (NCI-H1092) was > 8 µM and the EC50 (NCI-H1155) was 2.66 µM. The IC50 (NCI-H1155) was > 8 µM, the EC50 (NCI-H1299) was 1.51 µM and the IC50 (NCI-H1299) was > 8 µM. For the same molecule, the EC50 (NCI-H1355) was 0.471 µM, the IC50 (NCI-H1355) was > 8 µM and the EC50 (NCI-H1373) was > 8 µM. The IC50 (NCI-H1373) was > 8 µM, the EC50 (NCI-H1563) was > 8 µM and the IC50 (NCI-H1563) was > 8 µM. The EC50 (NCI-H1573) was > 8 µM, the IC50 (NCI-H1573) was > 8 µM and the EC50 (NCI-H1581) was > 8 µM. For the same molecule, the IC50 (NCI-H1581) was > 8 µM, the EC50 (NCI-H1648) was > 8 µM and the IC50 (NCI-H1648) was > 8 µM. The EC50 (NCI-H1650) was > 8 µM, the IC50 (NCI-H1650) was > 8 µM and the EC50 (NCI-H1651) was > 8 µM. For the same molecule, the IC50 (NCI-H1651) was > 8 µM and the EC50 (NCI-H1666) was > 8 µM.
